Where a SMILES comes first, the peptide text is derived from it. Bridges are numbered along the chain shown (N, C = ends). [ ]: non-standard residue; d: D form. The star is where a group is joined. Threoninol(2S,3R) = C[C@@H](O)[C@H](CO)N*
Experiments:
[1] = biological target: Mitogen-activated protein kinase 3 (Homo sapiens, UniProt P27361); assay: DRUGMATRIX: Protein Serine/Threonine Kinase, ERK1 enzyme inhibition (substrate: Myelin Basic Protein); set-up: species or system Escherichia coli; conditions: Not Active = under 50% inhibition at 10 µM
Sequence of Mitogen-activated protein kinase 3 (P27361 whole entry): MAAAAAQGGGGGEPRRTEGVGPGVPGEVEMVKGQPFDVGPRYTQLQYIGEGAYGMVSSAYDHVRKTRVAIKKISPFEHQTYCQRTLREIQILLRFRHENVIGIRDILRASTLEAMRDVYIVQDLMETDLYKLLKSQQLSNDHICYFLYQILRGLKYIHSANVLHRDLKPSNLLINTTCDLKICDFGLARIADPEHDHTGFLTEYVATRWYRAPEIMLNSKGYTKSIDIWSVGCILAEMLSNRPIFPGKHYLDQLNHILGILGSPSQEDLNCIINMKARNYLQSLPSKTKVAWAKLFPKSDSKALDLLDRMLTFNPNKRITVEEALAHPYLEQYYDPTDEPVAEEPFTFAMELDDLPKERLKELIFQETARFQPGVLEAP

B2 bradykinin receptor = biological target: T1, B2 bradykinin receptor (Homo sapiens, UniProt P30411); assay type: cell membranes, Membrane; conditions: chem-1; further: in other assays of this panel Not Active means under 50% inhibition at 10 µM
T1 sequence (P30411 whole entry): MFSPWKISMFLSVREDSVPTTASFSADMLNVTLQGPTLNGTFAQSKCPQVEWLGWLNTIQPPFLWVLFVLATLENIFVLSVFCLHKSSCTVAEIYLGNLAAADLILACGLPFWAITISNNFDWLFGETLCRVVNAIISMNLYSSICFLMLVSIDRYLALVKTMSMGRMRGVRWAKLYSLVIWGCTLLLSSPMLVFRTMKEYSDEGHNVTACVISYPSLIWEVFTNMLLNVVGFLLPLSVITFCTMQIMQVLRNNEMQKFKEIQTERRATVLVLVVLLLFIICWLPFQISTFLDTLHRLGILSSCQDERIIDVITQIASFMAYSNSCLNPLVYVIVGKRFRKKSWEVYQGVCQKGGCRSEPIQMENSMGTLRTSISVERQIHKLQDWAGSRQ

Cytochrome P450 2C9 = Cytochrome P450 2C9 (Homo sapiens, UniProt P11712); conditions: bti-tn-5b1-4; further: in other assays of this panel Not Active means under 50% inhibition at 10 µM
Sequence of Cytochrome P450 2C9 (P11712 whole entry): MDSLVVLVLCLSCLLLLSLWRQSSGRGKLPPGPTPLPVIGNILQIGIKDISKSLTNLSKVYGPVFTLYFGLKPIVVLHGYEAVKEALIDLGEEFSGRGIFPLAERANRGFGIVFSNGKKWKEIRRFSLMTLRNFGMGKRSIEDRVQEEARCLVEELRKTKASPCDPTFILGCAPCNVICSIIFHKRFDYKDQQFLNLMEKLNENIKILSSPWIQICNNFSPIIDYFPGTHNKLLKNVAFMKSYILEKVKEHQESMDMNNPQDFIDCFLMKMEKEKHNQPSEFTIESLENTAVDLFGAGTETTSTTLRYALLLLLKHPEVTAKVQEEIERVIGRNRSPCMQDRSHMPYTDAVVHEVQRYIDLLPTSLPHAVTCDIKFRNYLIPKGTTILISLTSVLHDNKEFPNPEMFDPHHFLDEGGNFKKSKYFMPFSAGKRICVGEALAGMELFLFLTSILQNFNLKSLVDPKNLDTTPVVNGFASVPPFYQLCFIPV

[2] = DRUGMATRIX: Phosphodiesterase PDE3 enzyme inhibition (substrate: [3H]cAMP + cAMP); assay type: tissue-based, Homo sapiens; conditions: platelet; Not Active = under 50% inhibition at 10 µM
[3] = DRUGMATRIX: Tumor Necrosis Factor (TNF), Non-Selective radioligand binding (ligand: [125I] TNF-alpha); assay type: cell membranes, Membrane; conditions: u-937; Not Active = under 50% inhibition at 10 µM
Calcitonin receptor = biological target: T2, Calcitonin receptor (Homo sapiens, UniProt P30988); assay type: cell membranes, Membrane; conditions: t47d; further: in other assays of this panel Not Active means under 50% inhibition at 10 µM
T2 sequence (P30988 whole entry): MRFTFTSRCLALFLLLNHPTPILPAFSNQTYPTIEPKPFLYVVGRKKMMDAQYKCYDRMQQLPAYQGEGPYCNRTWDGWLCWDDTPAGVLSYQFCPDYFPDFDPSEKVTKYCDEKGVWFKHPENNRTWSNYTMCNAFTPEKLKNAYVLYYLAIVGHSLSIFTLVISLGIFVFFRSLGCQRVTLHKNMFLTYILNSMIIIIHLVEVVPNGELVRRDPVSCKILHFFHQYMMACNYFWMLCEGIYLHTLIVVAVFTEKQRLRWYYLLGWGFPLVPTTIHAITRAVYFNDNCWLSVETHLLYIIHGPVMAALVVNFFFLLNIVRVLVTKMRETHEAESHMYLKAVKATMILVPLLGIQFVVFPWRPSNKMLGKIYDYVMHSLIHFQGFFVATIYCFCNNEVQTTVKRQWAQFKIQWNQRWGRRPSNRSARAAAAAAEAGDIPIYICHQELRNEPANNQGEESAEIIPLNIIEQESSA

[4] = biological target: T3, Alpha-1B adrenergic receptor (Rattus norvegicus, UniProt P15823); assay: DRUGMATRIX: Alpha-1B adrenergic receptor radioligand binding (ligand: prazosin); assay type: cell membranes, Wistar, Liver, Membrane; conditions: Not Active = under 50% inhibition at 10 µM
T3 sequence (P15823 whole entry): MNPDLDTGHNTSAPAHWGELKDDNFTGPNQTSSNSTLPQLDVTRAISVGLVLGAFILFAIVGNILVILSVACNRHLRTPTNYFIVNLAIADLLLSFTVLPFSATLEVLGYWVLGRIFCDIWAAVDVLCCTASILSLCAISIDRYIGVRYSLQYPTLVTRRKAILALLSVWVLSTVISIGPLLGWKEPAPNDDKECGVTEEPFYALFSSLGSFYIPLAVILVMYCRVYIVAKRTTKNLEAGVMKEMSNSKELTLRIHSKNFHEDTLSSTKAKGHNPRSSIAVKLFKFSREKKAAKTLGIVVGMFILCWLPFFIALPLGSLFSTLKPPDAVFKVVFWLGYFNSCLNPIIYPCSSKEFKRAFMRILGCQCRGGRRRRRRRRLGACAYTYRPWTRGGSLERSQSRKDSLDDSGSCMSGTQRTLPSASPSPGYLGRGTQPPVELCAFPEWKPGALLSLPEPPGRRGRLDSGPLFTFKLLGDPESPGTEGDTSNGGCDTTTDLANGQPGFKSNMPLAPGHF

[5] = biological target: Beta-3 adrenergic receptor (Homo sapiens, UniProt P13945); assay: DRUGMATRIX: Adrenergic beta3 radioligand binding (ligand: [125I] Cyanopindolol); assay type: cell membranes, Membrane; conditions: hek293; Not Active = under 50% inhibition at 10 µM
Sequence of Beta-3 adrenergic receptor (P13945 whole entry): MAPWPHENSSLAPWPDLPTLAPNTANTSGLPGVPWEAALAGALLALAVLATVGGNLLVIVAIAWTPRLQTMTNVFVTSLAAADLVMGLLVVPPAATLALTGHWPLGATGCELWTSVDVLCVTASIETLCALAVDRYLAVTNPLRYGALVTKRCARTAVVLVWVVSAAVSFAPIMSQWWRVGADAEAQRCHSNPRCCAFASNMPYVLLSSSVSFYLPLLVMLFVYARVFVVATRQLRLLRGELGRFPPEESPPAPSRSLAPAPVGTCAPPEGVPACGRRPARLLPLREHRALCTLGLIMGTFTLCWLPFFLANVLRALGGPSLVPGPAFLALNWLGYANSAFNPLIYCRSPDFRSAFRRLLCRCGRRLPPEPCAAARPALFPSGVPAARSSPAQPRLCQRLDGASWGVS

[6] = DRUGMATRIX: Calcium Channel Type L, Dihydropyridine radioligand binding (ligand: [3H] Nitrendipine); assay type: cell membranes, Rattus norvegicus, Wistar, Cerebral cortex, Membrane; conditions: Not Active = under 50% inhibition at 10 µM

C[C@@H](O)[C@H](CO)NC(=O)[C@@H]1CSSC[C@H](NC(=O)[C@H](N)Cc2ccccc2)C(=O)N[C@@H](Cc2ccccc2)C(=O)N[C@H](Cc2c[nH]c3ccccc23)C(=O)N[C@@H](CCCCN)C(=O)N[C@@H]([C@@H](C)O)C(=O)N1 (H-[dF]CF[dW]KTC-{Threoninol(2S,3R)}; disulfide 2-7)
Not Active: IC50 [1] | IC50 (B2 bradykinin receptor) | IC50 (Cytochrome P450 2C9) | Ki (Cytochrome P450 2C9) | IC50 [2] | Ki [2] | IC50 [3] | Ki [3] | IC50 (Calcitonin receptor) | IC50 [4] | IC50 [5] | IC50 [6] | Ki [6]

S=C=Nc1cccc2ccccc12 [1-NAPHTHYLISOTHIOCYANATE]
Not Active: IC50 [1] | IC50 (B2 bradykinin receptor) | IC50 (Cytochrome P450 2C9) | Ki (Cytochrome P450 2C9) | IC50 [2] | Ki [2] | IC50 [3] | Ki [3] | IC50 (Calcitonin receptor) | IC50 [4] | IC50 [5] | IC50 [6] | Ki [6]

C[C@](O)(CS(=O)(=O)c1ccc(F)cc1)C(=O)Nc1ccc(C#N)c(C(F)(F)F)c1 [(R)-BICALUTAMIDE]
Not Active: IC50 [1] | IC50 (B2 bradykinin receptor) | IC50 (Cytochrome P450 2C9) | Ki (Cytochrome P450 2C9) | IC50 [2] | Ki [2] | IC50 [3] | Ki [3] | IC50 (Calcitonin receptor) | IC50 [4] | IC50 [5] | IC50 [6] | Ki [6]

CC(=O)Nc1ccc(O)cc1 [ACETAMINOPHEN]
Not Active: IC50 [1] | IC50 (B2 bradykinin receptor) | IC50 (Cytochrome P450 2C9) | Ki (Cytochrome P450 2C9) | IC50 [2] | Ki [2] | IC50 [3] | Ki [3] | IC50 (Calcitonin receptor) | IC50 [4] | IC50 [5] | IC50 [6] | Ki [6]

COc1cc2c(c3oc(=O)c4c(c13)CCC4=O)[C@@H]1C=CO[C@@H]1O2 [AFLATOXIN]
Not Active: IC50 [1] | Ki [1] | IC50 (B2 bradykinin receptor) | Ki (B2 bradykinin receptor) | IC50 (Cytochrome P450 2C9) | Ki (Cytochrome P450 2C9) | IC50 [2] | Ki [2] | IC50 [3] | Ki [3] | IC50 (Calcitonin receptor) | Ki (Calcitonin receptor) | IC50 [4] | Ki [4] | IC50 [5] | Ki [5] | IC50 [6] | Ki [6]

N=C(N)NC(=O)c1nc(Cl)c(N)nc1N [AMILORIDE]
Not Active: IC50 [1] | IC50 (B2 bradykinin receptor) | IC50 (Cytochrome P450 2C9) | Ki (Cytochrome P450 2C9) | IC50 [2] | Ki [2] | IC50 [3] | Ki [3] | IC50 (Calcitonin receptor) | IC50 [4] | IC50 [5] | IC50 [6] | Ki [6]

CN1C(=O)COc2c(C(=O)NC3CN4CCC3CC4)cc(Cl)cc21 (stereo not drawn) [AZASETRON]
Not Active: IC50 [1] | IC50 (B2 bradykinin receptor) | IC50 (Cytochrome P450 2C9) | Ki (Cytochrome P450 2C9) | IC50 [2] | Ki [2] | IC50 [3] | Ki [3] | IC50 (Calcitonin receptor) | IC50 [4] | IC50 [5] | IC50 [6] | Ki [6]

C[C@H]1C[C@H]2[C@@H]3CCC4=CC(=O)C=C[C@]4(C)[C@@]3(Cl)[C@@H](O)C[C@]2(C)[C@@]1(O)C(=O)CO [BECLOMETHASONE]
Not Active: IC50 [1] | IC50 (B2 bradykinin receptor) | IC50 (Cytochrome P450 2C9) | Ki (Cytochrome P450 2C9) | IC50 [2] | Ki [2] | IC50 [3] | Ki [3] | IC50 (Calcitonin receptor) | IC50 [4] | IC50 [5] | IC50 [6] | Ki [6]

CCOC(=O)[C@H](CCc1ccccc1)N[C@H]1CCc2ccccc2N(CC(=O)O)C1=O [BENAZEPRIL]
Not Active: IC50 [1] | IC50 (B2 bradykinin receptor) | IC50 (Cytochrome P450 2C9) | Ki (Cytochrome P450 2C9) | IC50 [2] | Ki [2] | IC50 [3] | Ki [3] | IC50 (Calcitonin receptor) | IC50 [4] | IC50 [5] | IC50 [6] | Ki [6]

Nc1c(CC(=O)O)cccc1C(=O)c1ccc(Br)cc1 [BROMFENAC]
Not Active: IC50 [1] | IC50 (B2 bradykinin receptor) | IC50 (Cytochrome P450 2C9) | Ki (Cytochrome P450 2C9) | IC50 [2] | Ki [2] | IC50 [3] | Ki [3] | IC50 (Calcitonin receptor) | IC50 [4] | IC50 [5] | IC50 [6] | Ki [6]

CCCCN1CCCCC1C(=O)Nc1c(C)cccc1C.Cl (stereo not drawn) [BUPIVACAINE HYDROCHLORIDE]
Not Active: IC50 [1] | IC50 (B2 bradykinin receptor) | IC50 (Cytochrome P450 2C9) | Ki (Cytochrome P450 2C9) | IC50 [2] | Ki [2] | IC50 [3] | Ki [3] | IC50 (Calcitonin receptor) | IC50 [4] | IC50 [5] | IC50 [6] | Ki [6]

O=C1CC2(CCCC2)CC(=O)N1CCCCN1CCN(c2ncccn2)CC1 [BUSPIRONE]
Not Active: IC50 [1] | IC50 (B2 bradykinin receptor) | IC50 (Cytochrome P450 2C9) | Ki (Cytochrome P450 2C9) | IC50 [2] | Ki [2] | IC50 [3] | Ki [3] | IC50 (Calcitonin receptor) | IC50 [4] | IC50 [5] | IC50 [6] | Ki [6]

C[C@@]12C(=O)OC(=O)[C@]1(C)[C@H]1CC[C@@H]2O1 [CANTHARIDIN]
Not Active: IC50 [1] | IC50 (B2 bradykinin receptor) | IC50 (Cytochrome P450 2C9) | Ki (Cytochrome P450 2C9) | IC50 [2] | Ki [2] | IC50 [3] | Ki [3] | IC50 (Calcitonin receptor) | IC50 [4] | IC50 [5] | IC50 [6] | Ki [6]

ClC(Cl)Cl [CHLOROFORM]
Not Active: IC50 [1] | IC50 (B2 bradykinin receptor) | IC50 (Cytochrome P450 2C9) | Ki (Cytochrome P450 2C9) | IC50 [2] | Ki [2] | IC50 [3] | Ki [3] | IC50 (Calcitonin receptor) | IC50 [4] | IC50 [5] | IC50 [6] | Ki [6]

C=C1CC[C@H](O)C/C1=C/C=C1\CCC[C@]2(C)[C@@H]([C@H](C)CCCC(C)C)CC[C@@H]12 [CHOLECALCIFEROL]
Not Active: IC50 [1] | IC50 (B2 bradykinin receptor) | IC50 (Cytochrome P450 2C9) | Ki (Cytochrome P450 2C9) | IC50 [2] | Ki [2] | IC50 [3] | Ki [3] | IC50 (Calcitonin receptor) | IC50 [4] | IC50 [5] | IC50 [6] | Ki [6]

C[N+](C)(C)CCO.[Cl-] [CHOLINE CHLORIDE]
Not Active: IC50 [1] | IC50 (B2 bradykinin receptor) | IC50 (Cytochrome P450 2C9) | Ki (Cytochrome P450 2C9) | IC50 [2] | Ki [2] | IC50 [3] | Ki [3] | IC50 (Calcitonin receptor) | IC50 [4] | IC50 [5] | IC50 [6] | Ki [6]
